# Data taken from paper PMC4349892, “Biochemical Characterization of Three BLT Receptors in Zebrafish” (PLoS ONE, 2015).
# Columns and labels:
# Type in all cases: biochemical
# Conditions in all cases: agonist; pH 7.4 (calcium); GTPγS binding at 1 μM ligand, 30°C; dose-response curves only in figures
# [1] = biological target: T1, zebrafish Blt2b (Danio rerio, UniProt E7F4K9); test: calcium mobilization (Fluo-8), […]GTPγS binding, cAMP inhibition, TGFα shedding
# T1 construct: gene ltb4r2b; also HEK293 with Gq/i1; LC009451 assigned by order of listing
# T1 sequence (E7F4K9 1-339): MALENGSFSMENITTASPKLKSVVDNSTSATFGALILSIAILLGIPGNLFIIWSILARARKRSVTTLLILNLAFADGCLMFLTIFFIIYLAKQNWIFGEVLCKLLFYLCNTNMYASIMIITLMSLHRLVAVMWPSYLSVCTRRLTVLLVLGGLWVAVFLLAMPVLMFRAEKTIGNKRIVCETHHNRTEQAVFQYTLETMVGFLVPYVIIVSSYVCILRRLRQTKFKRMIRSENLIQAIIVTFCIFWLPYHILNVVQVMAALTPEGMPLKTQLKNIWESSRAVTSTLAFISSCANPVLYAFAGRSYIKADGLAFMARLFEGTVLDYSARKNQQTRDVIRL
# [2] = biological target: T2, hBLT2 (Homo sapiens, UniProt Q9NPC1); test: as above
# T2 construct: gene LTB4R2; also HEK293 with Gq/i1
# T2 sequence (Q9NPC1 1-358): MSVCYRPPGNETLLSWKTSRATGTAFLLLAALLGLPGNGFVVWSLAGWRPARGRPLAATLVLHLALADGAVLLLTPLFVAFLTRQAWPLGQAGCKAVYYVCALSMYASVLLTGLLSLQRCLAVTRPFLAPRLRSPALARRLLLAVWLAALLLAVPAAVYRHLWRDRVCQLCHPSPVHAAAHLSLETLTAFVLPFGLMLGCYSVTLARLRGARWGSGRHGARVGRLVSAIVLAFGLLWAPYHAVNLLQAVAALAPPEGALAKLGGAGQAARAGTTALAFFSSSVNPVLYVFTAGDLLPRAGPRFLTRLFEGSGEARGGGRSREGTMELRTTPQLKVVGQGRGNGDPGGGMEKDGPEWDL
# [3] = biological target: T1, zebrafish Blt2b; test: calcium mobilization (Fluo-8), […]GTPγS binding, TGFα shedding
# [4] = biological target: T3, hBLT1 (Homo sapiens, UniProt Q15722); test: calcium mobilization (Fluo-8), […]GTPγS binding, cAMP inhibition, TGFα shedding
# T3 construct: gene LTB4R; also HEK293 with Gq/i1
# [5] = biological target: T4, zebrafish Blt2a (Danio rerio, UniProt A0A0A8JZN4); test: calcium mobilization (Fluo-8), […]GTPγS binding, TGFα shedding
# T4 construct: gene ltb4r2a; also HEK293 with Gq/i1; LC009450 assigned by order of listing
# T4 sequence (A0A0A8JZN4 1-382): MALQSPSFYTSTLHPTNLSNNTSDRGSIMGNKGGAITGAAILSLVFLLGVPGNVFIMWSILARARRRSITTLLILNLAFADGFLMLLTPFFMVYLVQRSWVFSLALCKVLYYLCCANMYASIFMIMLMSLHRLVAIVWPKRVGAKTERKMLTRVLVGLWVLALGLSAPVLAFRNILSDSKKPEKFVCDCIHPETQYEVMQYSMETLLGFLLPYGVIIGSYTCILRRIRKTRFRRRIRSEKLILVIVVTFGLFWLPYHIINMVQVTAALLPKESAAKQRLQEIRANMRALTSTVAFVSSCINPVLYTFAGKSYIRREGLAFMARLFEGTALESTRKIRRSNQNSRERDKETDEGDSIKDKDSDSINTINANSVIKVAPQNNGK
# [6] = biological target: T2, hBLT2
# [7] = biological target: T5, zebrafish Blt1 (Danio rerio, UniProt A0A0A8JWS4); test: calcium mobilization (Fluo-8), […]GTPγS binding, cAMP inhibition, TGFα shedding
# T5 construct: gene ltb4r; also HEK293 with Gq/i1
# T5 sequence (A0A0A8JWS4 1-380): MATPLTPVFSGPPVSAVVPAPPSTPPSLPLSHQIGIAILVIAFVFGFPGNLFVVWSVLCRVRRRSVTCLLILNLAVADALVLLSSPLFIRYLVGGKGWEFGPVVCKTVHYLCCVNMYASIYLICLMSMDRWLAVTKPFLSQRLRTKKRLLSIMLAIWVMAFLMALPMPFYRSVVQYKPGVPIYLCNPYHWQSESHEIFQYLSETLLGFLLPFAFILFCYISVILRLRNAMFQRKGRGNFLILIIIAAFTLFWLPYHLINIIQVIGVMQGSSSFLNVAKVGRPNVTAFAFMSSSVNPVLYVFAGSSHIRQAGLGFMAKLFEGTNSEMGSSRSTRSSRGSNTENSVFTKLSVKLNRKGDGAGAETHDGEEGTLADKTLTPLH
# T3 sequence (Q15722 whole entry): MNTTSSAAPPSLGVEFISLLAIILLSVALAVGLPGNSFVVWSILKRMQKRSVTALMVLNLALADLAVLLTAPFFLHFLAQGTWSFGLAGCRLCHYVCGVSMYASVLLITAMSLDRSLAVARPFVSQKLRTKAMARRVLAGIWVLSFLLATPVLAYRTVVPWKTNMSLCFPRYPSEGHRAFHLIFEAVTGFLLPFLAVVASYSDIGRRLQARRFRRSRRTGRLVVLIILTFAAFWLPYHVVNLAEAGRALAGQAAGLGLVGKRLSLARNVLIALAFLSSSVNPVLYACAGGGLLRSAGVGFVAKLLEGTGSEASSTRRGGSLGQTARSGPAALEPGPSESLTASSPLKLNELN
Compound,"calcium mobilization (Fluo-8), [35S]GTPγS binding, cAMP inhibition, TGFα sheddin [1]","calcium mobilization (Fluo-8), [35S]GTPγS binding, cAMP inhibition, TGFα sheddin [2]","calcium mobilization (Fluo-8), [35S]GTPγS binding, TGFα shedding [3]","calcium mobilization (Fluo-8), [35S]GTPγS binding, cAMP inhibition, TGFα sheddin [4]","calcium mobilization (Fluo-8), [35S]GTPγS binding, TGFα shedding [5]","calcium mobilization (Fluo-8), [35S]GTPγS binding, TGFα shedding [6]","calcium mobilization (Fluo-8), [35S]GTPγS binding, cAMP inhibition, TGFα sheddin [7]"
"CCCCC[C@H](O)/C=C/C=C/C/C=C\CCCC(=O)O [12-HHT, 12(S)-hydroxy-5-cis-8,10-trans-heptadecatrienoic acid]",12-HHT activated zebrafish Blt2a and Blt2b at lower doses than LTB4,exhibited a dose-dependent increase in response to either 12-HHT or LTB4 stimulation,–,–,–,–,–
CCCCC/C=C\C[C@@H](O)/C=C/C=C/C=C\[C@@H](O)CCCC(=O)O [LTB4],–,–,exhibited a dose-dependent increase in response to either 12-HHT or LTB4 stimulation,intracellular free calcium concentration increased in a dose-dependent manner in response to LTB4 stimulation,exhibited a dose-dependent increase in response to either 12-HHT or LTB4 stimulation,exhibited a dose-dependent increase in response to either 12-HHT or LTB4 stimulation,intracellular free calcium concentration increased in a dose-dependent manner in response to LTB4 stimulation
